Experimental data reported in US20090035364A1, “PARA-SUBSTITUTED 2-ALKOXYPHENOL COMPOUNDS” (priority 2006, published 2009).

Experiments:
[1] = Cooling intensity: panelists taste aqueous solutions, compared with menthol at 2 ppm; assay type: in vivo, human; settings: tasted by a small group of panelists
[2] = Application in toothpaste: panelist's teeth brushed with toothgel containing the compound; assay type: in vivo, human; settings: 0.10 g of 10% solution in ethanol in opaque toothgel with peppermint oil and saccharin; after brushing and rinsing
Procedure: The chemicals are mixed in the toothgel, a piece of toothgel is put on a toothbrush and a panelist's teeth are brushed. The mouth is rinsed with water and the water is spat out. […] The cooling perception lasts for 45 minutes.

melting point [°C]	Structure (SMILES)	Concentration having a cooling intensity similar to or slightly higher than that of a solution of menthol at 2 ppm [1] [ppm]	other results
	COc1cc(COC(c2ccccc2)c2ccccc2)ccc1O [Example 4, 4-((benzhydryloxy)methyl)-2-methoxyphenol]	1.0	Cooling sensation felt by the panelist [2]: intense cooling sensation; Duration of cooling perception [2]: 45 min
	CC1CCC(C(C)C)C(O)C1 (centres unmarked) [I-Menthol, reference compound]	2.0	
148 to 150	COc1cc(CNC2c3ccccc3-c3ccccc32)ccc1O [Example 5, 4-((9H-fluoren-9-ylamino)methyl)-2-methoxyphenol]		
89 to 91	CCOc1cc(CNC(c2ccccc2)c2ccccc2)ccc1O [Example 6, 4-((benzhydrylamino)methyl)-2-ethoxyphenol]		
	CCNC(=O)C1CC(C)CCC1C(C)C (centres unmarked) [N-ethyl p-menthanecarboxamide (WS-3), N-ethyl p-menthanecarboxamide, reference compound]	1.5	
	COc1cc(CNC(c2ccccc2)c2ccccc2)ccc1O [Example 1, 4-((benzhydrylamino)methyl)-2-methoxyphenol]	0.5	
